Data set [1] is described as follows: Hygroscopic property evaluation of pemafibrate crystal (Karl Fischer moisture content). It is filed as physicochemical. On the procedure: A pemafibrate crystal was produced by recrystallizing pemafibrate from an ethyl acetate/heptane mixture in accordance with the method for producing a pemafibrate crystal as described in Non-Patent Document 1.
250 mg of the pemafibrate crystal was placed in a dish, and stored in an uncapped state (open state) in a dark place at 25° C. and 83% relative humidity (RH) for 3 months. The hygroscopic property was evaluated by measuring the moisture contents before and after the storage. The measurement of the moisture content was performed by a coulometric titration method in accordance with The Japanese Pharmacopoeia, 17th Edition, Moisture Content Measurement Method (Karl Fischer Method).

A short description of data set [2]: Examination of stability of pemafibrate, stored alone in open state in dish (HPLC related substances). It is filed as physicochemical. Here is the method:
250 mg of pemafibrate was placed in a dish, and stored in an uncapped state (open state) in a dark place at 40° C. and 75% relative humidity (RH) for 3 months.
The amounts of pemafibrate-derived decomposition products (related substances) before the start of storage and after storage at 40° C. and 75% RH for 3 months were evaluated through the following method.
The sum of related substance-derived peak areas was evaluated in terms of a ratio (%) to the pemafibrate-derived peak area using an HPLC apparatus, and the ratio was defined as the “Total amount (%) of related substances”.

Structures are written as SMILES.

For `CC[C@@H](Oc1cccc(CN(CCCOc2ccc(OC)cc2)c2nc3ccccc3o2)c1)C(=O)O` [Pemafibrate crystal, (2R)-2-[3-([1,3-Benzoxazol-2-yl[3-(4-methoxyphenoxy)propyl]amino]methyl)phenoxy]butanoic acid], the “Moisture content (%), before storage” value in data set [1] (before storage, Karl Fischer coulometric titration) is less than 0.1%. Besides, in data set [1] (open state in dish, dark place, 25° C., 83% RH, 3 months), the “Moisture content (%), after storage at 25° C. and 83% RH for 3 months” value was less than 0.1%. Further, in data set [1] (storage at 83% RH for 3 months, in words), the Hygroscopic property result is listed as “not hygroscopic”.

`CC[C@@H](Oc1cccc(CN(CCCOc2ccc(OC)cc2)c2nc3ccccc3o2)c1)C(=O)O` [Pemafibrate, (2R)-2-[3-([1,3-Benzoxazol-2-yl[3-(4-methoxyphenoxy)propyl]amino]methyl)phenoxy]butanoic acid]: the “Stability at high humidity” value in data set [2] (75% RH, storage for 3 months, in words) is recorded as “stable”. The “Total amount (%) of related substances, before storage” value in data set [2] (before storage, HPLC ratio of related substance peak areas to pemafibrate peak area) is given as less than 0.05%. The “Total amount (%) of related substances, after storage at 40° C. and 75% RH for 3 months” value in data set [2] (open state in dish, dark place, 40° C., 75% RH, 3 months) was less than 0.05%.

These data come from US11419855B2, “Pharmaceutical preparation” (KOWA COMPANY, LTD., priority 2017, dated 2022).
